The target of assay [1] is T1, CDK2 (Homo sapiens, UniProt P24941). The assay is described as follows: NanoBRET CDK2 engagement assay. It counts as cell-based. Details: expressed in transfected cells. The following applies: OVCAR3 cells with stable CDK2-Luciferase vector, 24 hours treatment. The method, then:
OVCAR3 cells with stable transfection of CDK2-Luciferase vector were seeded into 96-well plate at a density of 20,000 cells per well, 50 μL Opti-MEM medium supplemented with 1% FBS. Following morning, cells were treated with compounds of the disclosure, with starting concentration at 3 μM and ½ log dilution down to 0.3 nM for 24 hours at 37° C. DMSO treatment serves as control. Compound engagement was then measured using NanoBRE™ Kinase Kit from Promega (Part Number: CS1810C122, NanoBRET™ TE Kinase Kit #10, 1K) following manufacturer's instruction. For 24 hours treatment, tracer was added only for the last 2 hours. Briefly, 2.5 μL of complete 20× NanoBRET Tracer was added to the cells in suspension. Immediately prior to BRET measurements, prepare 3× Complete NanoBRET® Nano-Glo® Substrate in Opti-MEM without serum and phenol red. Without any delay, 25 μL per well of 3× Complete NanoBRET™ Nano-Glo® Substrate for a 96-well plate was added and mixed well. Signal was then read on a CLARIOstar® plate reader (measure donor emission (e.g., 450 nm) and acceptor emission (e.g., 610 nm or 630 nm) using a NanoBRET™-compatible luminometer. Target engagement was calculated with DMSO treatment as 100% signal, and IC50 was calculated by GraphPad Prism 9.
On the technique in general: Bioluminescence resonance energy transfer reports proximity on the nanometre scale.

Assay [2] concerns the target T1, CDK2. The experiment in a line: Phospho-Rb HTRF measurement in OVCAR3 cells (inhibition of CDK2). It counts as cell-based. More on the design: High-Throughput Measurement of Cellular Endogenous CDK2; endogenous in cells; host or cells: OVCAR3. The following applies: pRB(S807/811) assay, 24 h compound treatment. On the procedure:
Phosphorylation of RB protein at S780 and S807/811 were measured using HTRF phospho-RB cellular kits (Cat #64RBS780PEG and 64RBS807PEG) from Cisbio.
On Day 1, OVCAR3 or KYSE520 cells were seeded into 96-well tissue-culture treated plates at 20,000 cells/well in 200 μL and incubated overnight at 37° C. in CO2 atmosphere. On Day 2, the cells were treated with test compounds at concentrations from 0.3 to 10,000 nM using HP D300 digital dispenser. Twenty-four hours after compound treatment, cell culture media was removed by flicking the plate and tapping the plate against clean paper towel. Immediately 30 μL 1× lysis buffer was supplemented from the kit and the plate was incubated at room temperature on shaker for 30 min. After homogenization by pipetting up and down, 8 μL cell lysate from 96-well cell culture plate was transferred to 384-well small volume white detection plate. 2 μL premixed detection solution was added and the plate was covered with sealer. To prepare the detection solution, d2 conjugated-phospho-RB antibody and Eu-cryptate conjugated phosphor-RB antibody were diluted into detection buffer following manufacturer's instruction. Detection plates were incubated for 4 h at room temperature and read on ClarioStar (BMG Labtech) in TR-FRET mode (665 nM and 620 nM). The TR-FRET ratio (665 nM/620 nM) was plotted against the compound concentration and normalized to DMSO controls. Half maximal inhibition concentration (IC50) values are calculated with a four-parameter logistic fit using GraphPad Prism (version 8; La Jolla, CA).
(In general: TR-FRET usually uses a lanthanide donor and a delayed reading to cut background.)

By IC50 is commonly meant the concentration needed to halve the response being measured. Higher therefore signals lower potency.

Regarding `O=C1CCC(N2C(=O)c3ccc(N4CC(Oc5cccc(S(=O)(=O)N6CCC(Nc7ncc8ccc(=O)n(C9CCCC9)c8n7)CC6)c5)C4)cc3C2=O)C(=O)N1` (stereo not shown) [Compound 12, 5-(3-(3-((4-((8-cyclopentyl-7-oxo-7,8-dihydro-pyrido[2,3-d]pyrimidin-2-yl)amino)piperidin-1-yl)sulfonyl)phenoxy)azetidin-1-yl)-2-(2,6-dioxopiperidin-3-yl)isoindoline-1,3-dione], the IC50 in assay [1] came out at 4780 nM; in assay [2] it was 697 nM.

`Cn1c(=O)n(C2CCC(=O)NC2=O)c2cccc(C#CCOC3CCN(S(=O)(=O)N4CCC(Nc5ncc6ccc(=O)n(C7CCCC7)c6n5)CC4)CC3)c21` (stereo not shown) [Compound 14, 3-(4-(3-((1-((4-((8-cyclopentyl-7-oxo-7,8-dihydropyrido[2,3-d]pyrimidin-2-yl)amino)-piperidin-1-yl)sulfonyl)piperidin-4-yl)oxy)prop-1-yn-1-yl)-3-methyl-2-oxo-2,3-dihydro-1H-benzo[d]imidazol-1-yl)piperidine-2,6-dione]: the IC50 in assay [1] came to 668 nM; in assay [2], 633 nM.

Consider `CN(C1CCC(Nc2cccc3c2C(=O)N(C2CCC(=O)NC2=O)C3=O)CC1)S(=O)(=O)N1CCC(Nc2ncc3ccc(=O)n(C4CCCC4)c3n2)CC1` (stereo not shown) [Compound 15, 4-((8-cyclopentyl-7-oxo-7,8-dihydropyrido[2,3-d]pyrimidin-2-yl)amino)-N-(4-((2-(2,6-dioxo-piperidin-3-yl)-1,3-dioxoisoindolin-4-yl)amino)-cyclohexyl)-N-methylpiperidine-1-sulfonamide], for which the IC50 in assay [1] turned out to be 356 nM; in assay [2] it was 2020 nM.

For the compound `O=C1CCC(N2C(=O)c3ccc(CN4CC(Oc5cccc(S(=O)(=O)N6CCC(Nc7ncc8ccc(=O)n(C9CCCC9)c8n7)CC6)c5)C4)cc3C2=O)C(=O)N1` (stereo not shown) [Compound 17, 5-((3-(3-((4-((8-cyclopentyl-7-oxo-7,8-dihydro-pyrido[2,3-d]pyrimidin-2-yl)amino)piperidin-1-yl)sulfonyl)phenoxy)azetidin-1-yl)methyl)-2-(2,6-dioxopiperidin-3-yl)isoindoline-1,3-dione], the IC50 in assay [1] turned out to be 450 nM; in assay [2] it was 245 nM.

For the compound `Cn1c(=O)n(C2CCC(=O)NC2=O)c2cccc(CCCOCCNS(=O)(=O)N3CCC(Nc4ncc5ccc(=O)n(C6CCCC6)c5n4)CC3)c21` (stereo not shown) [Compound 18, 4-((8-cyclopentyl-7-oxo-7,8-dihydropyrido[2,3-d]pyrimidin-2-yl)amino)-N-(2-(3-(1-(2,6-dioxopiperidin-3-yl)-3-methyl-2-oxo-2,3-dihydro-1H-benzo[d]imidazol-4-yl)propoxy)-ethyl)piperidine-1-sulfonamide], the IC50 is 188 nM in assay [1] and 700 nM in assay [2].

For the compound `CN(CCCOCCCc1cccc2c1n(C)c(=O)n2C1CCC(=O)NC1=O)S(=O)(=O)N1CCC(Nc2ncc3ccc(=O)n(C4CCCC4)c3n2)CC1` (stereo not shown) [Compound 19, 4-((8-cyclopentyl-7-oxo-7,8-dihydropyrido[2,3-d]pyrimidin-2-yl)amino)-N-(3-(3-(1-(2,6-dioxo-piperidin-3-yl)-3-methyl-2-oxo-2,3-dihydro-1H-benzo[d]imidazol-4-yl)propoxy)propyl)-N-methylpiperidine-1-sulfonamide], the values for the IC50 in assay [1] and in assay [2] were 253 nM and 707 nM, respectively.

As for `CN(C1CCN(Cc2cccc3c2n(C)c(=O)n3C2CCC(=O)NC2=O)CC1)S(=O)(=O)N1CCC(Nc2ncc3ccc(=O)n(C4CCCC4)c3n2)CC1` (stereo not shown) [Compound 20, 4-((8-cyclopentyl-7-oxo-7,8-dihydropyrido[2,3-d]pyrimidin-2-yl)amino)-N-(1-((1-(2,6-dioxo-piperidin-3-yl)-3-methyl-2-oxo-2,3-dihydro-1H-benzo[d]imidazol-4-yl)methyl)piperidin-4-yl)-N-methylpiperidine-1-sulfonamide], the IC50 came out at 127 nM in assay [1] and 1170 nM in assay [2].

Take `CN(C[C@H]1CN(CCCc2cccc3c2n(C)c(=O)n3C2CCC(=O)NC2=O)CCO1)S(=O)(=O)N1CCC(Nc2ncc3ccc(=O)n(C4CCCC4)c3n2)CC1` (stereo partly drawn) [Compound 24, 4-((8-cyclopentyl-7-oxo-7,8-dihydropyrido[2,3-d]pyrimidin-2-yl)amino)-N-(((2R)-4-(3-(1-(2,6-dioxopiperidin-3-yl)-3-methyl-2-oxo-2,3-dihydro-1H-benzo[d]imidazol-4-yl)propyl)morpholin-2-yl)methyl)-N-methylpiperidine-1-sulfonamide]: the IC50 in assay [1] was determined as 169 nM; in assay [2], 194 nM.

With `O=C1CCC(N2Cc3c(OCCN4CC(Oc5cccc(S(=O)(=O)N6CCC(Nc7ncc8ccc(=O)n(C9CCCC9)c8n7)CC6)c5)C4)cccc3C2=O)C(=O)N1` (stereo not shown) [Compound 27, 3-(4-(2-(3-(3-((4-((8-cyclopentyl-7-oxo-7,8-dihydropyrido[2,3-d]pyrimidin-2-yl)amino)-piperidin-1-yl)sulfonyl)phenoxy)azetidin-1-yl)-ethoxy)-1-oxoisoindolin-2-yl)piperidine-2,6-dione], the values for the IC50 in assay [1] and in assay [2] were 334 nM and 882 nM, respectively.

Take `O=C1CCC(N2Cc3c(OCCN4CCC(Oc5cccc(S(=O)(=O)N6CCC(Nc7ncc8ccc(=O)n(C9CCCC9)c8n7)CC6)c5)CC4)cccc3C2=O)C(=O)N1` (stereo not shown) [Compound 29, 3-(4-(2-(4-(3-((4-((8-cyclopentyl-7-oxo-7,8-dihydropyrido[2,3-d]pyrimidin-2-yl)amino)-piperidin-1-yl)sulfonyl)phenoxy)piperidin-1-yl)ethoxy)-1-oxoisoindolin-2-yl)piperidine-2,6-dione]: the IC50 in assay [1] was determined as 426 nM; in assay [2] it was 216 nM.

On to `Cn1c(=O)n(C2CCC(=O)NC2=O)c2cccc(C3CCN(C4CCN(S(=O)(=O)N5CCC(Nc6ncc7ccc(=O)n(C8CCCC8)c7n6)CC5)CC4)CC3)c21` (stereo not shown) [Compound 31, 3-(4-(1′-((4-((8-cyclopentyl-7-oxo-7,8-dihydro-pyrido[2,3-d]pyrimidin-2-yl)amino)piperidin-1-yl)sulfonyl)-[1,4′-bipiperidin]-4-yl)-3-methyl-2-oxo-2,3-dihydro-1H-benzo[d]imidazol-1-yl)piperidine-2,6-dione], for which the IC50 in assay [1] was determined as 64 nM; in assay [2], 294 nM.

Consider `Cn1c(=O)n(C2CCC(=O)NC2=O)c2cccc(C3CCN(C4CC5(C4)CN(S(=O)(=O)N4CCC(Nc6ncc7ccc(=O)n(C8CCCC8)c7n6)CC4)C5)CC3)c21` (stereo not shown) [Compound 32, 3-(4-(1-(2-((4-((8-cyclopentyl-7-oxo-7,8-dihydro-pyrido[2,3-d]pyrimidin-2-yl)amino)piperidin-1-yl)sulfonyl)-2-azaspiro[3.3]heptan-6-yl)piperidin-4-yl)-3-methyl-2-oxo-2,3-dihydro-1H-benzo[d]imidazol-1-yl)piperidine-2,6-dione], for which the IC50 came to 59 nM in assay [1] and 317 nM in assay [2].

Regarding `Cn1c(=O)n(C2CCC(=O)NC2=O)c2cccc(C3CN(Cc4cccc(S(=O)(=O)N5CCC(Nc6ncc7ccc(=O)n(C8CCCC8)c7n6)CC5)c4)C3)c21` (stereo not shown) [Compound 40, 3-(4-(1-(3-((4-((8-cyclopentyl-7-oxo-7,8-dihydropyrido[2,3-d]pyrimidin-2-yl)amino)piperidin-1-yl)sulfonyl)benzyl)azetidin-3-yl)-3-methyl-2-oxo-2,3-dihydro-1H-benzo[d]imidazol-1-yl)piperidine-2,6-dione], the figures for the IC50 in assay [1] and in assay [2] were 297 nM and 135 nM, respectively.

`O=C1CCC(N2C(=O)c3cc(F)c(N4CCN(Cc5cc(F)cc(S(=O)(=O)N6CCC(Nc7ncc8ccc(=O)n(C9CCCC9)c8n7)CC6)c5)CC4)cc3C2=O)C(=O)N1` (stereo not shown) [Compound 43, 5-(4-(3-((4-((8-cyclopentyl-7-oxo-7,8-dihydro-pyrido[2,3-d]pyrimidin-2-yl)amino)piperidin-1-yl)sulfonyl)-5-fluorobenzyl)piperazin-1-yl)-2-(2,6-dioxopiperidin-3-yl)-6-fluoroisoindoline-1,3-dione]: the IC50 in assay [1] amounted to 401 nM; in assay [2] it was 465 nM.
